Measured values taken from US7488592B2, “Human protein acyl transferases and methods of uses therefor” (Washington University, priority 2003, dated 2009).

Columns and labels:
Erf2p/Erf4p complex = biological target: T1, Erf2p/Erf4p complex (Saccharomyces cerevisiae, UniProt Q06551); assay: Autopalmitoylation of Erf2p, microtiter plate assay with [3H]palmitoyl CoA; format: biochemical, yeast; conditions: 2-bromopalmitate 16, 63 or 250 μM; 30 minutes at 25 °C; no substrate
T1 construct: FLAG (N); made in house
T1 sequence (Q06551 1-359): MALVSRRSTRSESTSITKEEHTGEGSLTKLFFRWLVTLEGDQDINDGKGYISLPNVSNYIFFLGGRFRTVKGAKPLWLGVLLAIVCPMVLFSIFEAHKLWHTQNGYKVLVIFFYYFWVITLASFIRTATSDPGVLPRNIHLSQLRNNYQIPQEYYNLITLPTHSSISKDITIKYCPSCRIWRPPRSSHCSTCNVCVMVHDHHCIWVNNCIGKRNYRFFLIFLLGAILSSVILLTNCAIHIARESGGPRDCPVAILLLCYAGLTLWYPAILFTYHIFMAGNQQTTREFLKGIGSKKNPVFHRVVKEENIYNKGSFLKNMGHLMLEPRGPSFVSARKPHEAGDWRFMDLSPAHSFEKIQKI
T1 sequence (P41912 1-237 partner): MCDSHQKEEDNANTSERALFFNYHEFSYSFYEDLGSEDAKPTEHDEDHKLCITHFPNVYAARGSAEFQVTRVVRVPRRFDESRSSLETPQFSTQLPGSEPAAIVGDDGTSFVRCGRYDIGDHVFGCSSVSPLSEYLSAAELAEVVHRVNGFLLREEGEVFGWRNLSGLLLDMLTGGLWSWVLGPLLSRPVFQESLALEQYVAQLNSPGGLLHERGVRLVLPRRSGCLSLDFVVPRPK
Experimental: FIG. 19—Inhibition of autopalmitoylation of Erf2p. Partially purified […]/GST-Erf4p (2.7 nM) was bound to the well of a GSH coated microtiter plate. The complex was incubated in reaction buffer (122 mM NaCl, 183 mM Tris HCl pH 7.8, 0.6 mM DTT and 0.035% Triton X-100) (registered trademark of Union Carbide Chemicals and Plastics Co., Inc. for a compound of formula C14H22O(C2H4O)n (CAS No. 9002-93-1); hereinafter referred to as “Triton X-100”))in the presence or absence of 2-bromopalmitate (16 .μ.M, 63 .μ.M or 250 .μ.M). The autopalmitoylation reaction was initiated by addition of 5 .μ.l of 3 .μ.M [^ 3H]palmitoyl CoA and the reaction was incubated for 30 minutes at 25 ° C. The wells were washed (3 × 200 .μ.l 20 mM phosphate pH 6 with 1% Triton X-100) and 3 × 200 .μ.l 25% ipa in water. Finally, wash with 2 × 200 .μ.l 20 mM phosphate pH 6 with 150 mM NaCl. The wells were counted in scintillation fluid.
The inventors tested whether 2-BP inhibits autopalmitoylation of yeast Erf2p.

yeast Erf2p/Erf4p = biological target: T2, yeast Erf2p/Erf4p (Saccharomyces cerevisiae, UniProt Q06551); assay: Ras PAT assay: [3H]palmitate incorporation into GST-Ras(HV)CCaaX by partially purified Erf2p/Erf4p, with competitor or inhibitor; format: biochemical, S. cerevisiae; conditions: 0.5 μM [3H]palmitoyl-CoA; for effectiveness as competitor of the radioactive Ras PAT reaction (in words): unlabeled acyl-CoA at concentrations similar to 8 μM, FIG. 17
T2 construct: made in house; host or cells: S. cerevisiae RJY543 (galactose-induced)
T2 sequence (Q06551 1-359): T1 sequence (Q06551 1-359)
T2 sequence (P41912 1-237 partner): T1 sequence (P41912 1-237 partner)
Experimental: FIG. 17—Concentration dependent inhibition of yeast PAT activity by acyl-CoAs. Partially purified yeast Erf2p/Erf4p was assayed for PAT activity in the presence of 0.5 μM [^3H]palmitoyl-CoA and the indicated concentrations of unlabeled acyl-CoA substrates as indicated: decanoyl-CoA (C10:0), lauroyl-CoA (C12:0), myristoyl-CoA (C14:0), palmitoyl-CoA (C16:0), palmitoleoyl-CoA (C16:1), stearoyl-CoA (C18:0), and oleoyl-CoA (C18:1). Radiolabeled palmitoylated GST-Ras(HV)CCaaX was excised from the gel and quantitated. Results are expressed as a percent of Ras PAT activity in the absence of competitor (100%).
FIG. 18—Inhibition of Erf2p/Erf4p-dependent PAT by 2-bromopalmitate. Partially purified Erf2p/Erf4p was assayed for palmitoyltransferase activity using GST-Ras(HV)CCaaX (1.33 μM) and 0.5 μM [^3H]palmitoyl-CoA as substrate. Radiolabeled palmitoylated GST-Ras(HV)CCaaX was excised from the gel and quantitated. Results are expressed as a percent of Ras PAT activity in the absence of competitor (100%).
Ras PAT Assays—Ras PAT activity was assayed by measuring the incorporation of tritiated palmitate. [^3H]palmitoyl-CoA substrate was synthesized from [^3H]palmitic acid (NEN) and Coenzyme A using acyl-CoA synthetase (Sigma) and purified as described (Taylor et al., 1990). The PAT assay (25 μl of final volume) was performed by adding 1.5 μg of GST-Ras(HV)CCaaX(2 μM) to GST-Erf4p/FLAG-Erf2p GSH beads in 1 mM DTT, 100 mM MES (pH 6.3). The reaction was started by the addition of 1 μl of [^3H]palmitoyl-CoA (0.5 μM), incubated for 15 min at 30° C., and terminated by the addition of 5 μl of a 5× solution of SDS gel loading buffer without DTT. Heat inactivation was performed by boiling (100° C., 15 min) the GSH beads containing GST-Erf4p/FLAG-Erf2p prior to the addition of substrates. The assays were analyzed by SDS-PAGE using Bis-Tris gels, pH 6.4 (Nu-PAGE®), and subjected to fluorography as described (Mitchell et al., 1994). Quantitation of Ras PAT activity was done by excising Ras protein bands from the gel, solubilizing them in Soluene S-350 (Packard), and counting in a scintillation counter.
The lipid substrate specificity of Ras PAT was investigated by adding increasing amounts of unlabeled acyl-CoA competitors to the radioactive Ras PAT reaction. […] Decanoyl (C10:0) was ineffective at similar concentrations. […] Both saturated and unsaturated fatty acyl-CoAs were effective inhibitors. Little difference was observed between C16:0 and C16:1, or C18:0 and C18:1. The lack of complete acyl-CoA substrate specificity of Ras PAT is consistent with the finding that thioester-linked fatty acids on protein are heterogeneous in vivo (Linder, 2001).
Inhibition of autopalmitoylation or substrate palmitoylation can come about by substrates or substrate analogs. […] The lipid substrate specificity of yeast Erf2p/Erf4p for Ras palmitoylation was investigated by adding increasing amounts of unlabeled acyl-CoA competitors to the radioactive Ras PAT reaction. […] Decanoyl (C10:0) was ineffective at similar concentrations. […] Both saturated and unsaturated fatty acyl-CoAs were effective inhibitors. Little difference was observed between C16:0 and C16:1, or C18:0 and C18:1. The lack of complete acyl-CoA substrate specificity of Ras PAT is consistent with the finding that thioester-linked fatty acids on protein are heterogeneous in vivo (Linder, 2001). […]

PAT = conditions: reported by Webb et al., 2000; cited from earlier work

CCCCCCCCCCCCCCC(Br)C(=O)O (stereo not shown) [2-BP, 2-Bromopalmitate]
inhibition of autopalmitoylation of Erf2p (in words) (Erf2p/Erf4p complex): inhibited in a dose-dependent manner | inhibition of Erf2/Erf4-dependent PAT activity using yeast Ras2 as a substrate (in words) (yeast Erf2p/Erf4p; increasing concentrations of 2-BP, GST-Ras(HV)CCaaX 1.33 μM): inhibits | inhibition of PAT activity in vivo (in words) (PAT): inhibit PAT activity in vivo

CCCCCCCCCC(=O)SCCNC(=O)CCNC(=O)[C@H](O)C(C)(C)COP(=O)(O)OP(=O)(O)OC[C@H]1O[C@@H](n2cnc3c(N)ncnc32)[C@H](O)[C@@H]1OP(=O)(O)O [Decanoyl, decanoyl-CoA]
effectiveness as competitor of the radioactive Ras PAT reaction (in words) (yeast Erf2p/Erf4p): ineffective

CCCCCCCCCCCC(=O)SCCNC(=O)CCNC(=O)[C@H](O)C(C)(C)COP(=O)(O)OP(=O)(O)OC[C@H]1O[C@@H](n2cnc3c(N)ncnc32)[C@H](O)[C@@H]1OP(=O)(O)O [Lauryl, lauroyl-CoA]
effectiveness as competitor of the radioactive Ras PAT reaction (in words) (yeast Erf2p/Erf4p): more effective

CCCCCCCCCCCCCC(=O)SCCNC(=O)CCNC(=O)[C@H](O)C(C)(C)COP(=O)(O)OP(=O)(O)OC[C@H]1O[C@@H](n2cnc3c(N)ncnc32)[C@H](O)[C@@H]1OP(=O)(O)O [myristoyl, myristoyl-CoA]
effectiveness as competitor of the radioactive Ras PAT reaction (in words) (yeast Erf2p/Erf4p): more effective

CCCCCCCCCCCCCCCC(=O)SCCNC(=O)CCNC(=O)[C@H](O)C(C)(C)COP(=O)(O)OP(=O)(O)OC[C@H]1O[C@@H](n2cnc3c(N)ncnc32)[C@H](O)[C@@H]1OP(=O)(O)O [palmitoyl-CoA]
inhibition of Ras PAT activity by unlabeled acyl-CoA competitor (yeast Erf2p/Erf4p; 8 μM competitor, a 16-fold excess): 90%
